Experimental findings from ChEMBL document CHEMBL3124843, “Synthesis, cytostatic, antimicrobial, and anti-HCV activity of 6-substituted 7-(het)aryl-7-deazapurine ribonucleosides” (J Med Chem, 2014) are described below.

The test relates to Mycobacterium tuberculosis. Description: Antimycobacterial activity against Mycobacterium bovis BCG after 5 days by MTT assay. The class given is functional, organism-based. The settings on record: variant bovis BCG, 120 h. In general terms: Tetrazolium dyes change colour on reduction, which living cells bring about.

Molecules are shown by their SMILES.

The compound `Cc1ncnc2c1ccn2[C@@H]1O[C@H](CO)[C@@H](O)[C@H]1O` came in with a half-maximal inhibitory concentration (IC50) of 0.3 µM.
Regarding `Nc1ncnc2c1c(-c1ccco1)cn2[C@@H]1O[C@H](CO)[C@@H](O)[C@H]1O`, it took 17.4 µM to reach half-maximal inhibition (IC50).
In the case of `Nc1ncnc2c1c(-c1cccs1)cn2[C@@H]1O[C@H](CO)[C@@H](O)[C@H]1O` it was 4.73 µM; in that of `O=c1[nH]cnc2c1c(-c1cccs1)cn2[C@@H]1O[C@H](CO)[C@@H](O)[C@H]1O`, greater than 100 µM.
As for `Cc1nc(N)c2c(I)cn([C@@H]3O[C@H](CO)[C@@H](O)[C@H]3O)c2n1`, the figure is greater than 100 µM.
`COc1nc(N)nc2c1c(-c1ccco1)cn2[C@@H]1O[C@H](CO)[C@@H](O)[C@H]1O`: the IC50 is greater than 100 µM.
As for `COc1nc(N)nc2c1c(-c1ccoc1)cn2[C@@H]1O[C@H](CO)[C@@H](O)[C@H]1O`, the figure is greater than 100 µM; as for `COc1nc(N)nc2c1c(-c1cccs1)cn2[C@@H]1O[C@H](CO)[C@@H](O)[C@H]1O`, greater than 100 µM; as for `COc1nc(N)nc2c1c(-c1ccsc1)cn2[C@@H]1O[C@H](CO)[C@@H](O)[C@H]1O`, greater than 100 µM.
In turn, `COc1nc(N)nc2c1c(-c1ccccc1)cn2[C@@H]1O[C@H](CO)[C@@H](O)[C@H]1O` came in with an IC50 greater than 100 µM.
In the case of `COc1nc(N)nc2c1c(-c1cc3ccccc3o1)cn2[C@@H]1O[C@H](CO)[C@@H](O)[C@H]1O` it was greater than 100 µM; in that of `C#Cc1cn([C@@H]2O[C@H](CO)[C@@H](O)[C@H]2O)c2nc(N)nc(OC)c12`, greater than 100 µM.
In turn, `Nc1nc2c(c(-c3ccco3)cn2[C@@H]2O[C@H](CO)[C@@H](O)[C@H]2O)c(=O)[nH]1` came in with an IC50 greater than 100 µM.
As for `Nc1nc2c(c(-c3ccoc3)cn2[C@@H]2O[C@H](CO)[C@@H](O)[C@H]2O)c(=O)[nH]1`, the figure is greater than 100 µM; as for `Nc1nc2c(c(-c3cccs3)cn2[C@@H]2O[C@H](CO)[C@@H](O)[C@H]2O)c(=O)[nH]1`, greater than 100 µM.
In the case of `Nc1nc2c(c(-c3ccsc3)cn2[C@@H]2O[C@H](CO)[C@@H](O)[C@H]2O)c(=O)[nH]1` it was greater than 100 µM; in that of `Nc1nc2c(c(-c3ccccc3)cn2[C@@H]2O[C@H](CO)[C@@H](O)[C@H]2O)c(=O)[nH]1`, greater than 100 µM; in that of `Nc1nc2c(c(-c3cc4ccccc4o3)cn2[C@@H]2O[C@H](CO)[C@@H](O)[C@H]2O)c(=O)[nH]1`, greater than 100 µM.
In the case of `O=c1[nH]cnc2c1c(-c1ccco1)cn2[C@@H]1O[C@H](CO)[C@@H](O)[C@H]1O` it was greater than 100 µM.
Turning to `O=c1[nH]cnc2c1c(-c1ccoc1)cn2[C@@H]1O[C@H](CO)[C@@H](O)[C@H]1O`, the IC50 is greater than 100 µM.
As for `O=c1[nH]cnc2c1c(-c1ccsc1)cn2[C@@H]1O[C@H](CO)[C@@H](O)[C@H]1O`, the figure is greater than 100 µM; as for `O=c1[nH]cnc2c1c(-c1ccccc1)cn2[C@@H]1O[C@H](CO)[C@@H](O)[C@H]1O`, greater than 100 µM.
As for `O=c1[nH]cnc2c1c(-c1cc3ccccc3o1)cn2[C@@H]1O[C@H](CO)[C@@H](O)[C@H]1O`, the figure is greater than 100 µM; as for `Nc1nc(N)c2c(-c3ccco3)cn([C@@H]3O[C@H](CO)[C@@H](O)[C@H]3O)c2n1`, 84 µM.
In the case of `Nc1nc(N)c2c(-c3ccoc3)cn([C@@H]3O[C@H](CO)[C@@H](O)[C@H]3O)c2n1` it was 71.5 µM; in that of `Nc1nc(N)c2c(-c3cccs3)cn([C@@H]3O[C@H](CO)[C@@H](O)[C@H]3O)c2n1`, 2.44 µM.
In turn, `Nc1nc(N)c2c(-c3ccsc3)cn([C@@H]3O[C@H](CO)[C@@H](O)[C@H]3O)c2n1` had a half-inhibitory concentration (IC50) greater than 100 µM.
Compound `Nc1nc(N)c2c(-c3ccccc3)cn([C@@H]3O[C@H](CO)[C@@H](O)[C@H]3O)c2n1` came in with an IC50 of 8.53 µM.
In the case of `Nc1nc(N)c2c(-c3cc4ccccc4o3)cn([C@@H]3O[C@H](CO)[C@@H](O)[C@H]3O)c2n1` it was 24.6 µM.
As for `Cc1nc(N)c2c(-c3ccco3)cn([C@@H]3O[C@H](CO)[C@@H](O)[C@H]3O)c2n1`, the figure is greater than 100 µM; as for `Cc1nc(N)c2c(-c3ccoc3)cn([C@@H]3O[C@H](CO)[C@@H](O)[C@H]3O)c2n1`, greater than 100 µM.
As for `Cc1nc(N)c2c(-c3cccs3)cn([C@@H]3O[C@H](CO)[C@@H](O)[C@H]3O)c2n1`, the figure is 82.7 µM; as for `Cc1nc(N)c2c(-c3ccsc3)cn([C@@H]3O[C@H](CO)[C@@H](O)[C@H]3O)c2n1`, greater than 100 µM.
In the case of `Cc1nc(N)c2c(-c3ccccc3)cn([C@@H]3O[C@H](CO)[C@@H](O)[C@H]3O)c2n1`, the 50% inhibitory concentration (IC50) was greater than 100 µM.
`Cc1nc(N)c2c(-c3cc4ccccc4o3)cn([C@@H]3O[C@H](CO)[C@@H](O)[C@H]3O)c2n1` had an IC50 greater than 100 µM.
As for `C#Cc1cn([C@@H]2O[C@H](CO)[C@@H](O)[C@H]2O)c2nc(C)nc(N)c12`, the figure is greater than 100 µM; as for `Cc1nc(N)c2ccn([C@@H]3O[C@H](CO)[C@@H](O)[C@H]3O)c2n1`, greater than 100 µM.
As for `CNc1ncnc2c1ccn2[C@@H]1O[C@H](CO)[C@@H](O)[C@H]1O`, the figure is 87.1 µM; as for `CN(C)c1ncnc2c1c(-c1ccco1)cn2[C@@H]1O[C@H](CO)[C@@H](O)[C@H]1O`, greater than 100 µM.
As for `CN(C)c1ncnc2c1c(-c1ccoc1)cn2[C@@H]1O[C@H](CO)[C@@H](O)[C@H]1O`, the figure is greater than 100 µM; as for `CN(C)c1ncnc2c1c(-c1cccs1)cn2[C@@H]1O[C@H](CO)[C@@H](O)[C@H]1O`, greater than 100 µM.
On to `CN(C)c1ncnc2c1c(-c1ccsc1)cn2[C@@H]1O[C@H](CO)[C@@H](O)[C@H]1O`, for which the IC50 is greater than 100 µM.
As for `CN(C)c1ncnc2c1c(-c1ccccc1)cn2[C@@H]1O[C@H](CO)[C@@H](O)[C@H]1O`, the figure is greater than 100 µM; as for `CN(C)c1ncnc2c1c(-c1cc3ccccc3o1)cn2[C@@H]1O[C@H](CO)[C@@H](O)[C@H]1O`, greater than 100 µM; as for `C#Cc1cn([C@@H]2O[C@H](CO)[C@@H](O)[C@H]2O)c2ncnc(N(C)C)c12`, greater than 100 µM.
In the case of `CN(C)c1ncnc2c1ccn2[C@@H]1O[C@H](CO)[C@@H](O)[C@H]1O` it was greater than 100 µM.
Take `CN(C)c1ncnc2c1c(I)cn2[C@@H]1O[C@H](CO)[C@@H](O)[C@H]1O`: the IC50 was greater than 100 µM.
As for `Cc1ncnc2c1c(-c1ccco1)cn2[C@@H]1O[C@H](CO)[C@@H](O)[C@H]1O`, the figure is 38.9 µM; as for `Cc1ncnc2c1c(-c1ccoc1)cn2[C@@H]1O[C@H](CO)[C@@H](O)[C@H]1O`, 9.3 µM.
In the case of `Cc1ncnc2c1c(-c1cccs1)cn2[C@@H]1O[C@H](CO)[C@@H](O)[C@H]1O` it was 14 µM.
In the case of `Cc1ncnc2c1c(-c1ccsc1)cn2[C@@H]1O[C@H](CO)[C@@H](O)[C@H]1O` it was 18.5 µM.
For `Cc1ncnc2c1c(-c1ccccc1)cn2[C@@H]1O[C@H](CO)[C@@H](O)[C@H]1O`, the IC50 is 26.5 µM.
In the case of `Cc1ncnc2c1c(-c1cc3ccccc3o1)cn2[C@@H]1O[C@H](CO)[C@@H](O)[C@H]1O` it was 2.1 µM.
As for `C#Cc1cn([C@@H]2O[C@H](CO)[C@@H](O)[C@H]2O)c2ncnc(C)c12`, the figure is 42.9 µM; as for `Cc1ncnc2c1c(I)cn2[C@@H]1O[C@H](CO)[C@@H](O)[C@H]1O`, 51.4 µM.
As for `Cc1ncnc2c1c(Br)cn2[C@@H]1O[C@H](CO)[C@@H](O)[C@H]1O`, the figure is 20.8 µM; as for `COc1ncnc2c1c(-c1ccccc1)cn2[C@@H]1O[C@H](CO)[C@@H](O)[C@H]1O`, greater than 100 µM; as for `COc1ncnc2c1c(-c1cc3ccccc3o1)cn2[C@@H]1O[C@H](CO)[C@@H](O)[C@H]1O`, 73.5 µM.
As for `C#Cc1cn([C@@H]2O[C@H](CO)[C@@H](O)[C@H]2O)c2ncnc(OC)c12`, the IC50 was greater than 100 µM.
As for `COc1ncnc2c1c(I)cn2[C@@H]1O[C@H](CO)[C@@H](O)[C@H]1O`, the figure is greater than 100 µM.
In the case of `CSc1ncnc2c1c(-c1ccco1)cn2[C@@H]1O[C@H](CO)[C@@H](O)[C@H]1O` it was greater than 100 µM.
Regarding `CSc1ncnc2c1c(-c1ccoc1)cn2[C@@H]1O[C@H](CO)[C@@H](O)[C@H]1O`, the IC50 was greater than 100 µM.
Compound `CSc1ncnc2c1c(-c1cccs1)cn2[C@@H]1O[C@H](CO)[C@@H](O)[C@H]1O` returned an IC50 greater than 100 µM.
As for `CSc1ncnc2c1c(-c1ccsc1)cn2[C@@H]1O[C@H](CO)[C@@H](O)[C@H]1O`, the figure is 98.6 µM; as for `CSc1ncnc2c1c(-c1ccccc1)cn2[C@@H]1O[C@H](CO)[C@@H](O)[C@H]1O`, greater than 100 µM.
As for `CSc1ncnc2c1c(-c1cc3ccccc3o1)cn2[C@@H]1O[C@H](CO)[C@@H](O)[C@H]1O`, the figure is greater than 100 µM; as for `C#Cc1cn([C@@H]2O[C@H](CO)[C@@H](O)[C@H]2O)c2ncnc(SC)c12`, greater than 100 µM; as for `CSc1ncnc2c1ccn2[C@@H]1O[C@H](CO)[C@@H](O)[C@H]1O`, 96.8 µM.
In the case of `CSc1ncnc2c1c(I)cn2[C@@H]1O[C@H](CO)[C@@H](O)[C@H]1O` it was 87.1 µM; in that of `CNc1ncnc2c1c(-c1ccco1)cn2[C@@H]1O[C@H](CO)[C@@H](O)[C@H]1O`, greater than 100 µM; in that of `CNc1ncnc2c1c(-c1ccoc1)cn2[C@@H]1O[C@H](CO)[C@@H](O)[C@H]1O`, greater than 100 µM.
In the case of `CNc1ncnc2c1c(-c1cccs1)cn2[C@@H]1O[C@H](CO)[C@@H](O)[C@H]1O`, the IC50 was greater than 100 µM.
The compound `CNc1ncnc2c1c(-c1ccsc1)cn2[C@@H]1O[C@H](CO)[C@@H](O)[C@H]1O` displayed an IC50 greater than 100 µM.
In the case of `CNc1ncnc2c1c(-c1ccccc1)cn2[C@@H]1O[C@H](CO)[C@@H](O)[C@H]1O` it was greater than 100 µM.
In the case of `CNc1ncnc2c1c(-c1cc3ccccc3o1)cn2[C@@H]1O[C@H](CO)[C@@H](O)[C@H]1O`, the IC50 is greater than 100 µM.
In turn, `C#Cc1cn([C@@H]2O[C@H](CO)[C@@H](O)[C@H]2O)c2ncnc(NC)c12` had a concentration for half-maximal inhibition (IC50) greater than 100 µM.
In the case of `COc1ncnc2c1c(-c1ccoc1)cn2[C@@H]1O[C@H](CO)[C@@H](O)[C@H]1O` it was greater than 100 µM.
As for `COc1ncnc2c1c(-c1cccs1)cn2[C@@H]1O[C@H](CO)[C@@H](O)[C@H]1O`, the figure is greater than 100 µM.
As for `COc1ncnc2c1c(-c1ccsc1)cn2[C@@H]1O[C@H](CO)[C@@H](O)[C@H]1O`, the figure is greater than 100 µM.
Compound `CNc1ncnc2c1c(I)cn2[C@@H]1O[C@H](CO)[C@@H](O)[C@H]1O` displayed an IC50 of 99.9 µM.
In the case of `COc1ncnc2c1ccn2[C@@H]1O[C@H](CO)[C@@H](O)[C@H]1O` it was greater than 100 µM.

What is called IC50 is the concentration at which inhibition is half-maximal. High values mean lower potency, low ones higher potency.
